Measured values from the NIST ThermoML archive (doi:10.1016/j.fluid.2014.12.023).
Where “and” joins values, the source holds several entries; their conditions need not be identical. Equal values may be shown once.

Details: Liquid, Transpiration method

Fc1ccccc1I [1,2-fluoroiodobenzene]
Details	vapor or sublimation pressure
282.8 K	0.0397 kPa
285.7 K	0.0483 kPa and 0.0493 kPa
288.7 K	0.0638 kPa
289.5 K	0.0686 kPa
292.5 K	0.0843 kPa
296.4 K	0.1111 kPa
298.4 K	0.1269 kPa
301.4 K	0.1633 kPa
303.4 K	0.1819 kPa
306.4 K	0.2238 kPa
308.4 K	0.25 kPa
311.3 K	0.2939 kPa
313.4 K	0.3289 kPa
316.4 K	0.4201 kPa
317.5 K	0.4348 kPa
318.4 K	0.4686 kPa
321.4 K	0.5638 kPa
323.5 K	0.6216 kPa
326.5 K	0.7364 kPa
327.5 K	0.7616 kPa
328.6 K	0.8217 kPa

Fc1cccc(I)c1 [1,3-fluoroiodobenzene]
Details	vapor or sublimation pressure
275.2 K	0.0326 kPa
280.4 K	0.0474 kPa
283.4 K	0.0571 kPa
283.8 K	0.058 kPa
284.9 K	0.0625 kPa
286.8 K	0.0746 kPa
288.2 K	0.082 kPa
288.7 K	0.0861 kPa and 0.0802 kPa
290.7 K	0.0986 kPa
292.6 K	0.1122 kPa
293.2 K	0.1154 kPa
293.6 K	0.1137 kPa
296.7 K	0.1436 kPa
297.6 K	0.1513 kPa and 0.1481 kPa
300.6 K	0.184 kPa
302.5 K	0.2085 kPa
305.6 K	0.256 kPa
307.5 K	0.2849 kPa
307.6 K	0.2932 kPa and 0.3026 kPa
310.6 K	0.364 kPa and 0.3464 kPa
312.5 K	0.4094 kPa and 0.3873 kPa
315.6 K	0.4642 kPa
315.7 K	0.4836 kPa
317.6 K	0.516 kPa
317.7 K	0.5427 kPa
319.6 K	0.5968 kPa

Fc1ccc(I)cc1 [1,4-fluoroiodobenzene]
Details	vapor or sublimation pressure
276.5 K	0.0329 kPa
279.7 K	0.04219 kPa
283.9 K	0.05918 kPa and 0.0586 kPa
286.5 K	0.07144 kPa
289.4 K	0.08532 kPa and 0.08615 kPa
293.3 K	0.1163 kPa
298.1 K	0.1638 kPa
303 K	0.2198 kPa
308.1 K	0.3015 kPa
312.9 K	0.4121 kPa
317.9 K	0.547 kPa

Fc1ccccc1Br [1-bromo-2-fluorobenzene]
Details	vapor or sublimation pressure [kPa]
278.5 K	0.1247
279.4 K	0.1385
280.6 K	0.1422
282.3 K	0.1684
282.5 K	0.1604
283.4 K	0.1716
284.5 K	0.1843
285.5 K	0.2081
288.7 K	0.262
291.7 K	0.3115
294.5 K	0.3837
297.5 K	0.4636
300.3 K	0.5578
303.5 K	0.6675
306.6 K	0.8
309.5 K	0.944
312.6 K	1.141
315.4 K	1.338
318.6 K	1.61
321.4 K	1.858
324.3 K	2.174

Fc1cccc(Br)c1 [1-bromo-3-fluorobenzene]
Details	vapor or sublimation pressure [kPa]
280.8 K	0.2278
283.4 K	0.2912
283.7 K	0.2875
284.7 K	0.3109
286.6 K	0.3559
287.7 K	0.3711
288.7 K	0.403
289.4 K	0.4245
292.5 K	0.5168
293.4 K	0.5476
295.3 K	0.6202
298.4 K	0.7441
299.7 K	0.8106
301.5 K	0.8784
302.4 K	0.9483
305.8 K	1.125
308.5 K	1.312
311.6 K	1.541
314.6 K	1.819
317.6 K	2.138

Fc1ccc(Br)cc1 [1-bromo-4-fluorobenzene]
Details	vapor or sublimation pressure [kPa]
278.2 K	0.1662
281.3 K	0.2043
283.5 K	0.2384
284.4 K	0.2446
286.5 K	0.285
287.3 K	0.2956
289.4 K	0.3532
290.2 K	0.3668
292.4 K	0.4087
295.4 K	0.5144
296.1 K	0.5283
298.3 K	0.6028
300.1 K	0.6822
301.4 K	0.7138
304.4 K	0.8461
307.6 K	0.9874
310.5 K	1.204
313.4 K	1.41
316.4 K	1.673

Fc1ccccc1Cl [1-chloro-2-fluorobenzene]
Details	vapor or sublimation pressure
277.5 K	0.3411 kPa
280.6 K	0.4191 kPa and 0.4312 kPa
283.5 K	0.5098 kPa
283.6 K	0.5041 kPa
286.4 K	0.6241 kPa
286.6 K	0.6176 kPa
289.5 K	0.7705 kPa
289.6 K	0.7749 kPa
292.4 K	0.8974 kPa
295.7 K	1.093 kPa
298.5 K	1.268 kPa
301.3 K	1.521 kPa
304.1 K	1.795 kPa
307.4 K	2.169 kPa
310.1 K	2.497 kPa
313.6 K	3.121 kPa
316.3 K	3.551 kPa
319.2 K	4.226 kPa

Fc1cccc(Cl)c1 [1-chloro-3-fluorobenzene]
Details	vapor or sublimation pressure [kPa]
275.8 K	0.4412
280.1 K	0.5829
283.1 K	0.7061
286 K	0.8315
288.9 K	1.031
292 K	1.237
295.1 K	1.491
298.1 K	1.767
301 K	2.096
304.1 K	2.469
307.3 K	2.963
310.3 K	3.568
313.3 K	4.106
316.5 K	4.927
319.5 K	5.737

Fc1ccc(Cl)cc1 [1-chloro-4-fluorobenzene]
Details	vapor or sublimation pressure [kPa]
277.6 K	0.6008
280.6 K	0.7421
283.2 K	0.8729
286.2 K	1.057
289.3 K	1.259
292.4 K	1.527
295.7 K	1.87
296.9 K	1.982
299.8 K	2.405
302.7 K	2.858
305.7 K	3.285
308.4 K	3.855
311.6 K	4.575
314.3 K	5.275
317.6 K	6.059
320.4 K	7.146
323.5 K	8.51
